Measured values: patent US9856279B2 (AGIOS PHARMACEUTICALS, INC, priority 2011, dated 2018)

Biological target: IDH1 R132H (Homo sapiens, UniProt O75874, R132H)
Assay: Assay for IDH1 R132H inhibitors (NADPH/aKG, resazurin detection)
Format: biochemical
Conditions: Table 3; enzyme assay, 50 minutes at room temperature; read-out: IC50 (IDH1 R132H Inhibition)
Protocol: Assays were conducted in a volume of 76 μl assay buffer (150 mM NaCl, 10 mM MgCl2, 20 mM Tris pH 7.5, 0.03% bovine serum albumin) as follows in a standard 384-well plate: To 25 ul of substrate mix (8 uM NADPH, 2 mM aKG), 1 μl of test compound was added in DMSO. The plate was centrifuged briefly, and then 25 μl of enzyme mix was added (0.2 μg/ml IDH1 R132H) followed by a brief centrifugation and shake at 100 RPM. The reaction was incubated for 50 minutes at room temperature, then 25 μl of detection mix (30 μM resazurin, […]) was added and the mixture further incubated for 5 minutes at room temperature. The conversion of resazurin to resorufin was detected by fluorescent spectroscopy at Ex544 Em590 c/o 590.

Chain of IDH1 R132H (O75874 whole entry R132H): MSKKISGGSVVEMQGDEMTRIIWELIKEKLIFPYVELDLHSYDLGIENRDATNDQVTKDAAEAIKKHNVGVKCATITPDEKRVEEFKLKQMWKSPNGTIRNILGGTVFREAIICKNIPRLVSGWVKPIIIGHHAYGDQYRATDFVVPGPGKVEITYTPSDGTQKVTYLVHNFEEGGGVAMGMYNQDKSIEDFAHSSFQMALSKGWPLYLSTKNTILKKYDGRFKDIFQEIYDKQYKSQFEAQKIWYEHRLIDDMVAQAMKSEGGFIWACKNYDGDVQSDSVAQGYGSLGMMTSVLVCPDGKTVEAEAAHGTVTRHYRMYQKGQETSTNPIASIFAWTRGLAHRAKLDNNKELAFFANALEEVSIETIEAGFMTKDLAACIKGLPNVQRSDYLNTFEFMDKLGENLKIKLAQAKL

| Structure (SMILES) | IC50 |
| --- | --- |
| CC(C)c1nc(N2CCN(C(=O)c3ccco3)CC2c2ccccc2)c(C#N)cc1-c1ccccc1 (stereo not shown) [Compound 166, 2-(4-(furan-2-carbonyl)-2-phenylpiperazin-1-yl)-6-isopropyl-5-phenylnicotinonitrile] | 5 to 15 µM |
| CC(C)c1cc(-c2ccccc2)c(C#N)c(N2CCN(C(=O)c3ccco3)CC2c2ccccc2)n1 (stereo not shown) [Compound 167, 2-(4-(furan-2-carbonyl)-2-phenylpiperazin-1-yl)-6-isopropyl-4-phenylnicotinonitrile] | 1 to 5 µM |
| CC(C)c1nc(N2CCN(C(=O)c3c[nH]c4ccccc34)CC2c2ccccc2)c(C#N)cc1-c1ccccc1 (stereo not shown) [Compound 168, 2-(4-(1H-indole-3-carbonyl)-2-phenylpiperazin-1-yl)-6-isopropyl-5-phenylnicotinonitrile] | 1 to 5 µM |
| CC(C)c1cc(-c2ccccc2)c(C#N)c(N2CCN(C(=O)c3c[nH]c4ccccc34)CC2c2ccccc2)n1 (stereo not shown) [Compound 169, 2-(4-(1H-indole-3-carbonyl)-2-phenylpiperazin-1-yl)-6-isopropyl-4-phenylnicotinonitrile] | 1 to 5 µM |
| CC(C)c1nc(N2CCN(C(=O)c3ccoc3)[C@H](C(C)C)C2)c(C#N)cc1-c1ccccc1 [Compound 170, (R)-2-(4-(furan-3-carbonyl)-3-isopropylpiperazin-1-yl)-6-isopropyl-5-phenylnicotinonitrile] | 1 to 5 µM |
| CC[C@@H]1CN(c2nc(C(C)C)c(-c3ccccc3)cc2C#N)CCN1C(=O)c1ccoc1 [Compound 171, (R)-2-(3-ethyl-4-(furan-3-carbonyl)piperazin-1-yl)-6-isopropyl-5-phenylnicotinonitrile] | 1 to 5 µM |
| CC[C@@H]1CN(c2nc(C(C)C)c(-c3ccccc3)cc2C#N)CCN1C(=O)c1ccco1 [Compound 172, (R)-2-(3-ethyl-4-(furan-2-carbonyl)piperazin-1-yl)-6-isopropyl-5-phenylnicotinonitrile] | 5 to 15 µM |
| CC[C@@H]1CN(c2nc(C(C)C)c(-c3ccccc3)cc2C#N)CCN1C(=O)c1ccoc1C [Compound 173, (R)-2-(3-ethyl-4-(2-methylfuran-3-carbonyl)piperazin-1-yl)-6-isopropyl-5-phenylnicotinonitrile] | 1 to 5 µM |
| CC[C@@H]1CN(c2nc(C(C)C)c(-c3ccccc3)cc2C#N)CCN1C(=O)Cc1cccs1 [Compound 174, (R)-2-(3-ethyl-4-(2-(thiophen-2-yl)acetyl)piperazin-1-yl)-6-isopropyl-5-phenylnicotinonitrile] | 1 to 5 µM |
| COc1ccccc1-c1cc(C#N)c(N2CCN(C(=O)c3ccoc3)[C@H](C)C2)nc1C(C)C [Compound 175, (R)-2-(4-(furan-3-carbonyl)-3-methylpiperazin-1-yl)-6-isopropyl-5-(2-methoxyphenyl)nicotinonitrile] | 1 to 5 µM |
| COc1ccccc1-c1cc(C#N)c(N2CCN(C(=O)c3ccco3)[C@H](C)C2)nc1C(C)C [Compound 176, (R)-2-(4-(furan-2-carbonyl)-3-methylpiperazin-1-yl)-6-isopropyl-5-(2-methoxyphenyl)nicotinonitrile] | 1 to 5 µM |
| COc1ccccc1-c1cc(C#N)c(N2CCN(C(=O)Cc3cccs3)[C@H](C)C2)nc1C(C)C [Compound 177, (R)-6-isopropyl-5-(2-methoxyphenyl)-2-(3-methyl-4-(2-(thiophen-2-yl)acetyl)piperazin-1-yl)nicotinonitril-e] | 1 to 5 µM |
| COc1ccccc1-c1cc(C#N)c(N2CCN(C(=O)c3ccoc3C)[C@H](C)C2)nc1C(C)C [Compound 178, (R)-6-isopropyl-5-(2-methoxyphenyl)-2-(3-methyl-4-(2-methylfuran-3-carbonyl)piperazin-1-yl)nicotino-nitrile] | 1 to 5 µM |
| Cc1ccc(-c2cc(C#N)c(N3CCN(C(=O)c4ccoc4)[C@H](C)C3)nc2C(C)C)cc1 [Compound 179, (R)-2-(4-(furan-3-carbonyl)-3-methylpiperazin-1-yl)-6-isopropyl-5-p-tolylnicotinonitrile] | 1 to 5 µM |
| Cc1ccc(-c2cc(C#N)c(N3CCN(C(=O)c4ccco4)[C@H](C)C3)nc2C(C)C)cc1 [Compound 180, (R)-2-(4-(furan-2-carbonyl)-3-methylpiperazin-1-yl)-6-isopropyl-5-p-tolylnicotinonitrile] | 1 to 5 µM |
| Cc1ccc(-c2cc(C#N)c(N3CCN(C(=O)Cc4cccs4)[C@H](C)C3)nc2C(C)C)cc1 [Compound 181, (R)-6-isopropyl-2-(3-methyl-4-(2-(thiophen-2-yl)acetyl)piperazin-1-yl)-5-p-tolylnicotinonitrile] | 1 to 5 µM |
| Cc1ccc(-c2cc(C#N)c(N3CCN(C(=O)c4ccoc4C)[C@H](C)C3)nc2C(C)C)cc1 [Compound 182, (R)-6-isopropyl-2-(3-methyl-4-(2-methylfuran-3-carbonyl)piperazin-1-yl)-5-p-tolylnicotinonitrile] | ≤ 1 µM |

| Structure (SMILES) | IC50 |
| --- | --- |
| COCCC(=O)N1CCN(c2nc(C(C)C)c(-c3ccccc3OC)cc2C#N)C[C@H]1C [Compound 183, (R)-6-isopropyl-5-(2-methoxyphenyl)-2-(4-(3-methoxypropanoyl)-3-methylpiperazin-1-yl)nicotinonitrile] | 1 to 5 µM |
| CCOc1ccccc1-c1cc(C#N)c(N2CCN(C(=O)c3ccco3)C[C@@H]2C)nc1C(C)C [Compound 184, (S)-5-(2-ethoxyphenyl)-2-(4-(furan-2-carbonyl)-2-methylpiperazin-1-yl)-6-isopropylnicotinonitrile] | 1 to 5 µM |
| CC(C)c1nc(N2CCN(C(=O)c3ccco3)[C@H](C)C2)c(C#N)cc1-c1ccc(C(F)(F)F)cc1 [Compound 185, (R)-2-(4-(furan-2-carbonyl)-3-methylpiperazin-1-yl)-6-isopropyl-5-(4-(trifluoromethyl)phenyl) nicotinonitrile] | 1 to 5 µM |
| CC(C)c1nc(N2CCN(C(=O)c3ccoc3)[C@H](C)C2)c(C#N)cc1-c1ccc(C(F)(F)F)cc1 [Compound 187, (R)-2-(4-(furan-3-carbonyl)-3-methylpiperazin-1-yl)-6-isopropyl-5-(4-(trifluoromethyl)phenyl)nicotinonitrile] | ≤ 1 µM |
| CC(C)c1nc(N2CCN(C(=O)Cc3cccs3)[C@H](C)C2)c(C#N)cc1-c1ccc(C(F)(F)F)cc1 [Compound 188, (R)-6-isopropyl-2-(3-methyl-4-(2-(thiophen-2-yl)acetyl)piperazin-1-yl)-5-(4-(trifluoromethyl)phenyl)nicotinonitrile] | 1 to 5 µM |
| COCCC(=O)N1CCN(c2nc(C(C)C)c(-c3ccc(C(F)(F)F)cc3)cc2C#N)C[C@H]1C [Compound 189, (R)-6-isopropyl-2-(4-(3-methoxypropanoyl)-3-methylpiperazin-1-yl)-5-(4-(trifluoromethyl)phenyl)-nicotinonitrile] | 1 to 5 µM |
| Cc1cccc(-c2cc(C#N)c(N3CCN(C(=O)c4ccco4)[C@H](C)C3)nc2C(C)C)c1 [Compound 190] | 5 to 15 µM |
| Cc1cccc(-c2cc(C#N)c(N3CCN(C(=O)c4ccoc4)[C@H](C)C3)nc2C(C)C)c1 [Compound 191] | ≤ 1 µM |
| Cc1cccc(-c2cc(C#N)c(N3CCN(C(=O)Cc4cccs4)[C@H](C)C3)nc2C(C)C)c1 [Compound 192, (R)-6-isopropyl-2-(3-methyl-4-(2-(thiophen-2-yl)acetyl)piperazin-1-yl)-5-m-tolylnicotinonitrile] | 1 to 5 µM |
| COCCC(=O)N1CCN(c2nc(C(C)C)c(-c3cccc(C)c3)cc2C#N)C[C@H]1C [Compound 193, (R)-6-isopropyl-2-(4-(3-methoxypropanoyl)-3-methylpiperazin-1-yl)-5-m-tolylnicotinonitrile] | 1 to 5 µM |
| CC(C)c1nc(N2CCN(C(=O)c3ccoc3)[C@H](C(C)C)C2)c(C#N)cc1-c1ccc(C(F)(F)F)cc1 [Compound 195] | 1 to 5 µM |
| CC(C)c1nc(N2CCN(C(=O)Cc3cccs3)[C@H](C(C)C)C2)c(C#N)cc1-c1ccc(C(F)(F)F)cc1 [Compound 196, (R)-6-isopropyl-2-(3-isopropyl-4-(2-(thiophen-2-yl)acetyl)piperazin-1-yl)-5-(4-(trifluoromethyl)phenyl)-nicotinonitrile] | 1 to 5 µM |
| COCCC(=O)N1CCN(c2nc(C(C)C)c(-c3ccc(C(F)(F)F)cc3)cc2C#N)C[C@H]1C(C)C [Compound 197, (R)-6-isopropyl-2-(3-isopropyl-4-(3-methoxypropanoyl)piperazin-1-yl)-5-(4-(trifluoromethyl)phenyl)nicotinonitrile] | 1 to 5 µM |
| COCCC(=O)N1CCN(c2nc(C(C)C)c(-c3ccc(C)cc3)cc2C#N)C[C@H]1C [Compound 198, (R)-6-isopropyl-2-(4-(3-methoxypropanoyl)-3-methylpiperazin-1-yl)-5-p-tolylnicotinonitrile] | 1 to 5 µM |
| Cc1occc1C(=O)N1CCN(c2nc(C(C)C)c(-c3ccc(F)cc3)cc2C#N)C[C@H]1C [Compound 199, (R)-5-(4-fluorophenyl)-6-isopropyl-2-(3-methyl-4-(2-methylfuran-3-carbonyl)piperazin-1-yl)nicotinonitrile] | 1 to 5 µM |
| Cc1cccc(-c2cc(C#N)c(N3CCN(C(=O)c4ccoc4C)[C@H](C)C3)nc2C(C)C)c1 [Compound 200, (R)-6-isopropyl-2-(3-methyl-4-(2-methylfuran-3-carbonyl)piperazin-1-yl)-5-m-tolylnicotinonitrile] | 1 to 5 µM |
| Cc1occc1C(=O)N1CCN(c2nc(C(C)C)c(-c3ccc(C(F)(F)F)cc3)cc2C#N)C[C@H]1C [Compound 201, (R)-6-isopropyl-2-(3-methyl-4-(2-methylfuran-3-carbonyl)piperazin-1-yl)-5-(4-(trifluoromethyl)phenyl)-nicotinonitrile] | 1 to 5 µM |
